In patent US10933038B2, “Use of (benzenesulfonamido) benzamide compounds for inhibiting liver fibrosis” (Hebei Medfaith Pharmaceutical Technology Co., Ltd., priority 2015, dated 2021):

Experiments:
[1] = tested on: COL1A1 promoter; assay: dual-luciferase reporter assay of COL1A1 promoter activity in LX2 cells; assay type: cell-based, human; settings: TGF-β1 2 ng/ml, 1, 5 and 10 μmol/L, 24 h
Protocol: At 37° C., 5% CO2, human hepatic stellate cells LX2 were cultured in DMEM medium containing 10% fetal bovine serum (Gibco). After the cells reached a confluence of about 95%, the cells were spread onto a 96-well plate at 2×10^4 cells per well. After the cells reached a confluence of about 90%, the cells were subjected to serum-free culture in DMEM medium (Gibco) containing no fetal bovine serum for 24 h. […] The cells were further cultured for 24 h. In accordance with the operations described in the instruction of Dual-Glo™ Luciferase Assay System, the medium was discarded, and the cells were washed with PBS once. Cells were lysed by the addition of 1×PLB (20 μL/well) (within 15 min), luciferase substrate (50 μL/well) was added for assay, and a stop solution (50 μL/well) was added for assay.

[2] = tested on: Kunming mice; assay: safety in Kunming mice, single intragastric dose, 14 days observation; assay type: in vivo; settings: 50-2000 mg/kg; for change in body weight (relative body weight Day 14/Day 1): 14 days after administration; for death / signs of intoxication: 14 days observation
Protocol: In the example, the compounds 16-4 and 17-15 were tested for their safety in Kunming mice.
Kunming mice (with a body weight of 18-22 g) were randomly divided into control group, 16-4 administration group, and 17-15 administration group, with 4 mice for each group, administered at a dose of 0 mg/kg, 50 mg/kg, 500 mg/kg, 1000 mg/kg and 2000 mg/kg. At the first day of experiment, drugs were intragastrically administered to 16-4 administration group and 17-15 administration group, and normal saline was administered to control group. The body weight and physical conditions of mice (for example, being short of breath or not, having bleeding spots in skin or not, etc.) and whether mice died or not were recorded every day. After observation for 14 days, the mice were sacrificed.

[3] = tested on: TGF-β1-induced LX2 cells; assay: real-time PCR assay in TGF-β1-induced LX2 cells; assay type: cell-based, human; settings: TGF-β1 (2 ng/ml)-induced LX2 cells, 1, 5 and 10 μmmol/L, 24 h
Protocol: (§1) In DMEM (Gibco) medium containing 10% fetal bovine serum, LX2 cells were cultured at 37° C., 5% CO2. The cells were spread on a 6-well plate at 1×10^5 cells per well. After culture for 24 h, the original medium was discarded, the cells were washed with PBS once, and DMEM (Gibco) medium without 10% fetal bovine serum was added. […] After further culture for 24 h, the samples were taken.
In accordance with the TRizol method, the total RNA in LX2 cells were extracted, and in accordance with the operations described in the instruction of Roche Transcriptor First Strand cDNA Synthesis Kit, the total RNA of LX2 was reverse transcribed into cDNA. The cDNA obtained, sterile water, Roche FastStart Universal Probe Master (Rox) and ABI TaqMan probes (COL1A1, TGF-β1, MMP2) were used to prepare a 20 μL reaction system, which was analyzed by ABI 7500 Fast Real-Time PCR System.

[4] = tested on: TGF-β1-induced LX2 cells; assay: Western blot assay in TGF-β1-induced LX2 cells; assay type: cell-based, human; settings: TGF-β1 (2 ng/ml)-induced LX2 cells, 1, 5 and 10 μmmol/L, 24 h
Protocol: as §1
Proteins in LX2 cells were extracted with RAPI lysis solution (containing 1% PMSF), and the protein concentration was determined by BCA method. The sample was loaded at 20 μg/20 μL, subjected to polyacrylamide gel electrophoresis, transferred to a membrane, blocked with 5% skim milk, incubated with a primary antibody, washed with PBST, incubated with a secondary antibody, and imaged with ChemiImager 5500 imaging system.

[5] = tested on: BDL model rat; assay: real-time PCR of genes associated with liver fibrosis in liver tissue of BDL rats; assay type: in vivo; settings: 100 mg/kg i.p., 14 days
Protocol: (§2) SD male rats (with a body weight of 180-200 g) were randomly divided into sham operation group, BDL model group and 16-4 administration group, wherein sham operation group included 6 rats, BDL model group included 8 rats, and 16-4 administration group included 6 rats. Animals were fasted for 12 hours before surgery. After anesthetization with isoflurane, the abdomen of rat was opened under aseptic conditions, the liver was lifted, the duodenum was pulled aside, and 2-3 cm common bile duct was separate. Ligations were performed twice with silk thread No. 000 at the place proximal to duodenum and the place proximal to porta hepatis, respectively. The common bile duct was cut off at the middle of the two ligation places. After the liver was put back, the cut was sutured. In sham operation group, the abdomen was just opened, and then sutured. After recovery from anesthesia, the animals were subjected to normal diet, with free access to water. […]
Liver tissues (80-100 mg) were taken from the rats of each group in Example 6, and 1 mL TRizol was added. […] The cDNA obtained, sterile water, Roche FastStart Universal Probe Master (Rox) and ABI TaqMan probes were used to prepare a 20 μL reaction system, which was analyzed by ABI 7500 Fast Real-Time PCR System.

[6] = tested on: BDL model rat; assay: Masson staining of liver tissue of BDL rats; assay type: in vivo; settings: 100 mg/kg i.p., 14 days
Protocol: as §2, with “water. 2 days after surgery, the compound 16-4 (100 mg/kg) was intraperitoneally injected to 16-4 administration group, and normal saline was intraperitoneally injected to sham operation group and BDL model group, once a day. After administration for 14 days, samples such as urine, blood, bile, liver, kidney and ileum were collected from the animals after being fasted for 12 hours.” for “water.”

[7] = tested on: ANIT-induced liver injury; assay: alpha-naphthylisothiocyanate (ANIT)-induced liver injury model, HE staining; assay type: in vivo, mouse; settings: 400 mg/kg intragastric, ANIT 75 mg/kg, 48 h after induction
Protocol: After further administration for 2 days (i.e. after induction with ANIT for 48 h), liver tissues were harvested, and subjected to pathological section and HE staining.

[8] = tested on: BDL model rat; assay: HE staining of liver tissue of BDL rats; assay type: in vivo; settings: 100 mg/kg i.p., 14 days
Protocol: (§3) SD male rats (with a body weight of 180-200 g) were randomly divided into sham operation group, BDL model group and 16-4 administration group, wherein sham operation group included 6 rats, BDL model group included 8 rats, and 16-4 administration group included 6 rats. Animals were fasted for 12 hours before surgery. After anesthetization with isoflurane, the abdomen of rat was opened under aseptic conditions, the liver was lifted, the duodenum was pulled aside, and 2-3 cm common bile duct was separate. Ligations were performed twice with silk thread No. 000 at the place proximal to duodenum and the place proximal to porta hepatis, respectively. The common bile duct was cut off at the middle of the two ligation places. After the liver was put back, the cut was sutured. In sham operation group, the abdomen was just opened, and then sutured. After recovery from anesthesia, the animals were subjected to normal diet, with free access to water. 2 days after surgery, the compound 16-4 (100 mg/kg) was intraperitoneally injected to 16-4 administration group, and normal saline was intraperitoneally injected to sham operation group and BDL model group, once a day. After administration for 14 days, samples such as urine, blood, bile, liver, kidney and ileum were collected from the animals after being fasted for 12 hours.
The liver tissue samples were taken from rats of each group in Example 6, and the rats were fasted for 12 hours before taking samples. The rats were anesthetized with 10% chloral hydrate and the liver tissue was taken. The hepatic lobar tissue blocks were cut off and fixed in 4% neutral formaldehyde solution. By carrying out the steps such as dehydration, paraffin embedding, slicing and baking, paraffin slices were made. Hematoxylin-eosin (HE) staining solution was used for staining, and changes in pathological structure of rat liver tissue were observed.

[9] = tested on: BDL model rat; assay: hydroxyproline content in liver tissue of BDL rats; assay type: in vivo; settings: 100 mg/kg i.p., 14 days
Protocol: as §2
(2) Hydroxyproline is specific to collagen fibrils, and the content of hydroxyproline can reflect the extent of liver fibrosis. Liver tissue samples (80-100 mg) were taken from the rats of each group in Example 6, and in accordance with the instruction of Hydroxyproline Assay Kit (purchased from Nanjing Jiancheng Bioengineering Institute), the content of hydroxyproline in the liver tissues was determined.

[10] = tested on: BDL model rat; assay: serum liver function in BDL model rat; assay type: in vivo; settings: 100 mg/kg i.p. once a day for 14 days
Protocol: as §3
Blood samples were taken from rats of each group in Example 6, and the rats were fasted for 12 h before taking samples. The rats were anesthetized with 10% chloral hydrate, and blood was collected via aorta ventralis, on standing at room temperature for 1 h, and centrifuged at 3000 rpm for 5 min. The serum was tested for serum biochemical indexes.

[11] = tested on: BDL model rat; assay: Western blot of proteins associated with liver fibrosis in liver tissue of BDL rats; assay type: in vivo; settings: 100 mg/kg i.p., 14 days
Protocol: as §2, with “water. 2 days after surgery, the compound 16-4 (100 mg/kg) was intraperitoneally injected to 16-4 administration group, and normal saline was intraperitoneally injected to sham operation group and BDL model group, once a day.” for “water.”
Liver tissues (80-100 mg) were taken from the rats of each group in Example 6, and 1 mL RAPI lysis solution (containing 1% PMSF) was added. […] The supernatant was taken, and the protein concentration was determined by BCA method. […]

Row | SMILES | activity of COL1A1 promoter (relative luciferase activity) [1] | change in body weight (relative body weight Day 14/Day 1) [2] | death [2] | signs of intoxication [2] | expression levels of mRNA of COL1A1, TGF-β1 and MMP2 [3] | expression of COL1A1, TGF-β1, MMP2 and α-SMA protein [4] | expression of genes associated with liver fibrosis (COL1A1, TGF-β1, MMP2, α-SMA (ACTA2), TIMP1, TIMP2 and SPP1) [5] | fibrosis of liver tissues (Masson staining) [6] | liver injury (HE staining of liver tissue slices) compared to ANIT-induced group [7] | bile duct proliferation [8] | pathological structure of the liver tissues [8] | tissue necrosis [8] | content of hydroxyproline in rat liver tissues [9] | liver function of BDL rats [10] | alanine aminotransferase ALT ([10]; serum, BDL rat, n = 6) | alkaline phosphatase ALP ([10]; serum, BDL rat, n = 6) | γ-glutamyltransferase γ-GGT ([10]; serum, BDL rat, n = 6) | expression of COL1A1, TGF-β1, MMP2 and α-SMA protein [11]
1 | O=C(Nc1ccc(Cl)c(Cl)c1)c1ccccc1NS(=O)(=O)c1cccc(OC(F)(F)F)c1 [17-15, N-(3,4-dichlorophenyl)-2-(3-trifluoromethoxybenzenesulfonamido) benzamide] | inhibit the activity of COL1A1 promoter in a dose-dependent manner | no significant decrease in body weight | no death occurred | no signs of intoxication were observed | significantly inhibit | significantly inhibit | – | – | – | – | – | – | – | – | – | – | – | –
2 | O=C(Nc1cc(Cl)c(Cl)c(Cl)c1)c1ccccc1NS(=O)(=O)c1cccc([N+](=O)[O-])c1 [16-4, N-(3,4,5-trichlorophenyl)-2-(3-nitrobenzenesulfonamido) benzamide] | inhibit the activity of COL1A1 promoter in a dose-dependent manner | no significant decrease in body weight | no death occurred | no signs of intoxication were observed | significantly inhibit | significantly inhibit | significantly reduce | significantly inhibit the fibrosis of liver tissues | had the liver injury improved | significantly inhibited bile duct proliferation | significantly improve | significantly reduced tissue necrosis | significantly reduce | could improve the liver function | 68.20 ± 11.86 U/L | 383.60 ± 56.45 U/L | 27.40 ± 10.26 U/L | significantly inhibit
